This note sets out measurements from patent US8039504B2 (priority 2003, dated 2011).

Common to all, as to assay: microbe, parasite or virus in culture
What all share (type): cell-based

Experiment [1] relates to Vaccinia virus (NYCBH). Particulars: Orthopoxvirus vaccinia, Vero, 72 h.
Experiment [2] relates to camelpox. The following applies: read-out: Camelpox EC50.
Experiment [3] relates to monkeypox virus (Zaire (V79-1-005-scab)). Particulars: read-out: Monkeypox EC50.
For experiment [4], the system named is wild type cowpox virus. Particulars: read-out: Cowpox EC50.
Setting [5] is: read-out: EC50 of reference standards in vaccinia CPE assay.

The term EC50 denotes the concentration giving half of the maximal effect.

Where two headings read alike, the source gives them in different places.

On to `Nc1ccn(C[C@@H](CO)OCP(=O)(O)O)c(=O)n1` [CDV, (S)-1-(3-hydroxy-2-phosphonylmethoxypropyl)cytosine, reference compound], for which the EC50 in experiment [1] (setting [5]) worked out at 84 ± 15 µM.
As for `O=C(NN1C(=O)[C@@H]2C3C=CC(C4CC43)[C@@H]2C1=O)c1ccncc1` (stereo partly shown) [Example 2, N-(3,3a,4,4a,5,5a,6,6a,- octahydro-1,3-dioxo-4,6-ethenocycloprop[f]isoindol-2(1H)-yl)-4-pyridinecarboxamide], the EC50 in experiment [2] was less than 0.5 µM; in experiment [3], less than 0.5 µM; in experiment [1] (read-out: Vaccinia EC50), less than 0.5 µM; in experiment [4], 1 to 5 µM.
As for `O=C(NN1C(=O)[C@@H]2C3C=CC(C4CC43)[C@@H]2C1=O)c1ccc(Br)cc1` (stereo partly shown) [Example 3, 4-Bromo-N-(3,3a,4,4a,5,5a,6,6a,- octahydro-1,3-dioxo-4,6-ethenocycloprop[f]isoindol-2(1H)-yl)-benzamide], the EC50 in experiment [2] was less than 0.5 µM; in experiment [3], less than 0.5 µM; in experiment [1] (read-out: Vaccinia EC50) it was less than 0.5 µM; in experiment [4] it was 0.5 to 1 µM.
`O=C(NN1C(=O)[C@@H]2C3C=CC(C4CC43)[C@@H]2C1=O)c1cccc(Br)c1` (stereo partly shown) [Example 4, 3-Bromo-N-(3,3a,4,4a,5,5a,6,6a,- octahydro-1,3-dioxo-4,6-ethenocycloprop[f]isoindol-2(1H)-yl)-benzamide]: the EC50 is less than 0.5 µM in experiment [1] (read-out: Vaccinia EC50) and 1 to 5 µM in experiment [4].
With `O=C(NN1C(=O)[C@@H]2C3C=CC(C4CC43)[C@@H]2C1=O)c1cccc(Cl)c1` (stereo partly shown) [Example 5, 3-Chloro-N-(3,3a,4,4a, 5,5a,6,6a,- octahydro-1,3-dioxo-4,6-ethenocycloprop[f]isoindol-2(1H)-yl)-benzamide], the EC50 in experiment [1] (read-out: Vaccinia EC50) and in experiment [4] was 0.5 to 1 µM throughout.
As to `O=C(NN1C(=O)[C@@H]2C3C=CC(C4CC43)[C@@H]2C1=O)c1ccccc1Br` (stereo partly shown) [Example 6, 2-Bromo-N-(3,3a,4,4a,5,5a,6,6a,- octahydro-1,3-dioxo-4,6-ethenocycloprop[f]isoindol-2(1H)-yl)-benzamide], the EC50 in experiment [1] (read-out: Vaccinia EC50) was 0.5 to 1 µM; in experiment [4], more than 5 µM.
With `O=C(NN1C(=O)[C@@H]2C3C=CC(C4CC43)[C@@H]2C1=O)c1ccccc1Cl` (stereo partly shown) [Example 7, 2-Chloro-N-(3,3a,4,4a,5,5a,6,6a,- octahydro-1,3-dioxo-4,6-ethenocycloprop[f]isoindol-2(1H)-yl)-benzamide], the EC50 in experiment [1] (read-out: Vaccinia EC50) was less than 0.5 µM.
In the case of `O=C(NN1C(=O)[C@@H]2C3C=CC(C4CC43)[C@@H]2C1=O)c1ccc(Cl)cc1` (stereo partly shown) [Example 8, 4-Chloro-N-(3,3a,4,4a,5,5a,6,6a,- octahydro-1,3-dioxo-4,6-ethenocycloprop[f]isoindol-2(1H)-yl)-benzamide], the EC50 in experiment [1] (read-out: Vaccinia EC50) was less than 0.5 µM; in experiment [4] it was 0.5 to 1 µM.
The like results for `O=C(NN1C(=O)[C@@H]2C3C=CC(C4CC43)[C@@H]2C1=O)c1cccnc1` (stereo partly shown) [Example 9, N-(3,3a,4,4a,5,5a,6,6a,- octahydro-1,3-dioxo-4,6-ethenocycloprop[f]isoindol-2(1H)-yl)-3-pyridinecarboxamide] were, in that order, less than 0.5 µM and more than 5 µM.
Consider `O=C(NN1C(=O)[C@@H]2C3C=CC(C4CC43)[C@@H]2C1=O)c1ccccn1` (stereo partly shown) [Example 10, N-(3,3a,4,4a,5,5a,6,6a,- octahydro-1,3-dioxo-4,6-ethenocycloprop[f]isoindol-2(1H)-yl)-2-pyridinecarboxamide], for which the EC50 in experiment [1] (read-out: Vaccinia EC50) and in experiment [4] was more than 5 µM throughout.
For the compound `COc1ccc(C(=O)NN2C(=O)[C@@H]3C4C=CC(C5CC54)[C@@H]3C2=O)cc1` (stereo partly shown) [Example 11, 4-Methoxy-N-(3,3a,4,4a,5,5a,6,6a,- octahydro-1,3-dioxo-4,6-ethenocycloprop[f]isoindol-2(1H)-yl)-benzamide], the EC50 was 1 to 5 µM in experiment [1] (read-out: Vaccinia EC50) and more than 5 µM in experiment [4].
As for `O=C(NN1C(=O)[C@@H]2C3C=CC(C4CC43)[C@@H]2C1=O)c1ccc([N+](=O)[O-])cc1` (stereo partly shown) [Example 12, 4-Nitro-N-(3,3a,4,4a,5,5a,6,6a,- octahydro-1,3-dioxo-4,6-ethenocycloprop[f]isoindol-2(1H)-yl)-benzamide], the EC50 in experiment [1] (read-out: Vaccinia EC50) and in experiment [4] was less than 0.5 µM each time.
For `O=C(NN1C(=O)[C@@H]2C3C=CC(C4CC43)[C@@H]2C1=O)c1ccc(F)cc1` (stereo partly shown) [Example 13, 4-Fluoro-N-(3,3a,4,4a,5,5a,6,6a,- octahydro-1,3-dioxo-4,6-ethenocycloprop[f]isoindol-2(1H)-yl)-benzamide], the EC50 in experiment [1] (read-out: Vaccinia EC50) is less than 0.5 µM; in experiment [4] it was 0.5 to 1 µM.
Turning to `O=C(NN1C(=O)[C@@H]2C3C=CC(C4CC43)[C@@H]2C1=O)c1cccc(F)c1` (stereo partly shown) [Example 14, 3-Fluoro-N-(3,3a,4,4a,5,5a,6,6a,- octahydro-1,3-dioxo-4,6-ethenocycloprop[f]isoindol-2(1H)-yl)-benzamide], the EC50 in experiment [1] (read-out: Vaccinia EC50) was less than 0.5 µM; in experiment [4], 1 to 5 µM.
For the compound `O=C(NN1C(=O)[C@@H]2C3CCC(C4CC43)[C@@H]2C1=O)c1ccc(Br)cc1` (stereo partly shown) [Example 15, 4-Bromo-N-(3,3a,4,4a,5,5a,6,6a-octahydro-1,3-dioxo-4,6-ethanocycloprop[f]isoindol-2(1H)-yl)-benzamide], the EC50 in experiment [2], in experiment [3], in experiment [1] (read-out: Vaccinia EC50) and in experiment [4] was less than 0.5 µM each time.
Consider `O=C(NN1C(=O)C2CCCCC2C1=O)c1ccc(Br)cc1` (stereo not shown) [Example 17, 4-Bromo-N-(octahydro-1,3-dioxo-2H-isoindol-2-yl)-benzamide], for which the EC50 in experiment [1] (read-out: Vaccinia EC50) was less than 0.5 µM; in experiment [4], 1 to 5 µM.
`O=C(NN1C(=O)[C@@H]2C3C=CC(CC3)[C@@H]2C1=O)c1ccc(Br)cc1` [Example 18, 4-Bromo-N-bicyclo[2.2.2]oct-5-ene-2,3-dicarboximido-benzamide]: the EC50 in experiment [1] (read-out: Vaccinia EC50) and in experiment [4] was less than 0.5 µM throughout.
As to `O=C(NN1C(=O)[C@@H]2C3CCC(CC3)[C@@H]2C1=O)c1ccc(Br)cc1` [Example 19, 4-Bromo-N-bicyclo[2.2.2]octane-2,3-dicarboximido-benzamide], the EC50 in experiment [1] (read-out: Vaccinia EC50) and in experiment [4] was less than 0.5 µM in each case.
Regarding `N#Cc1ccc(C(=O)NN2C(=O)[C@@H]3C4C=CC(C5CC54)[C@@H]3C2=O)cc1` (stereo partly shown) [Example 20, 4-Cyano-N-(3,3a,4,4a,5,5a,6,6a,- octahydro-1,3-dioxo-4,6-ethenocycloprop[f]isoindol-2(1H)-yl)-benzamide], the EC50 in experiment [1] (read-out: Vaccinia EC50) and in experiment [4] was less than 0.5 µM in each case.
As for `O=C(NN1C(=O)[C@@H]2C3CCC([C@H]4C[C@@H]34)[C@@H]2C1=O)c1ccc(C(F)(F)F)cc1` [Example 21, 4-Trifluoromethyl-N-(3,3a,4,4a,5,5a,6,6a,- octahydro-1,3-dioxo-4,6-ethanocycloprop[f]isoindol-2(1H)-yl)-benzamide], the EC50 in experiment [1] (read-out: Vaccinia EC50) and in experiment [4] was less than 0.5 µM each time.
As to `Cc1ccc(C(=O)NN2C(=O)[C@@H]3C4C=CC(C5CC54)[C@@H]3C2=O)cc1` (stereo partly shown) [Example 22, 4-Methyl-N-(3,3a,4,4a,5,5a,6,6a,- octahydro-1,3-dioxo-4,6-ethanocycloprop[f]isoindol-2(1H)-yl)-benzamide], the EC50 in experiment [1] (read-out: Vaccinia EC50) is less than 0.5 µM; in experiment [4], 1 to 5 µM.
For `O=C(NN1C(=O)[C@@H]2C3C=CC([C@@H]2C1=O)C31CC1)c1cccc(Br)c1` [Example 23, 3-Bromo-N-(1′,3,3′a,4′,7,7′a-hexahydro-1′,3′,dioxospiro [cyclopropane-1,8′-[4,7]methano[2H]isoindol]-2′-yl)-benzamide], in experiment [1] (read-out: Vaccinia EC50), the EC50 is less than 0.5 µM.
Take `O=C(Cc1ccccc1)NN1C(=O)[C@@H]2C3C=CC(C4CC43)[C@@H]2C1=O` (stereo partly shown) [Example 25, N-(3,3a,4,4a,5,5a,6,6a,- octahydro-1,3-dioxo-4,6-ethenocycloprop[f]isoindol-2(1H)-yl)-benzeneacetamide]: the 50% effective concentration (EC50) in experiment [1] (read-out: Vaccinia EC50) was 0.5 to 1 µM; in experiment [4], more than 5 µM.
`O=C(NN1C(=O)[C@@H]2C3C=CC(C3)[C@@H]2C1=O)c1ccc(Br)cc1` [Example 26, 4-Bromo-N-(1,3,3a,4,7,7a-hexahydro-1,3,-dioxo-4,7-methano-2H-isoindol-2-yl)-benzamide]: the EC50 in experiment [1] (read-out: Vaccinia EC50) is less than 0.5 µM.
Regarding `O=C(NN1C(=O)[C@@H]2C3C=CC(C3)[C@@H]2C1=O)c1ccc(Cl)cc1Cl` [Example 27, 2,4-Dichloro-N-(1,3,3a,4,7,7a-hexahydro-1,3,-dioxo-4,7-methano-2H-isoindol-2-yl)-benzamide], the EC50 in experiment [1] (read-out: Vaccinia EC50) was 0.5 to 1 µM.
As for `O=C(NN1C(=O)[C@@H]2C3C=CC(CC3)[C@@H]2C1=O)c1ccc(C(F)(F)F)cc1` [Example 28, 4-Trifluoromethyl-N-bicylo [2.2.2]oct-5-ene-2,3-dicarboximido-benzamide], the EC50 in experiment [1] (read-out: Vaccinia EC50) and in experiment [4] was less than 0.5 µM throughout.
For `O=C(NN1C(=O)[C@@H]2C3CCC(CC3)[C@@H]2C1=O)c1ccc(C(F)(F)F)cc1` [Example 29, 4-Trifluoromethyl-N-bicyclo [2.2.2]octane-2,3-dicarboximido-benzamide], the concentration for a half-maximal effect (EC50) in experiment [1] (read-out: Vaccinia EC50) and in experiment [4] was less than 0.5 µM throughout.
As to `Cc1nc(C)c(C(=O)NN2C(=O)[C@@H]3C4C=CC(C5CC54)[C@@H]3C2=O)s1` (stereo partly shown) [Example 41, 2,4-Dimethyl-N-(3,3a,4,4a,5,5a,6,6a-octahydro-1,3-dioxo-4,6-ethenocycloprop[f]isoindol-2(1H)-yl)-thiazole-5-carboxamide], the concentration for a half-maximal effect (EC50) in experiment [1] (read-out: Vaccinia EC50) was less than 0.5 µM; in experiment [4], 1 to 5 µM.
Regarding `O=C(O)CP(=O)(O)O` [PAA, phosphonoacetic acid, reference compound], the EC50 in experiment [1] (setting [5]) stood at 985 ± 85 µM.
